Test results as given in patent US9744222B2, “Peptide for vaccine” (Circassia Limited, priority 2007, dated 2017).
Where a SMILES comes first, the peptide text is derived from it.

How the values were obtained:
[1] = Solubility pre-screen of peptides; conditions: pre-screened for solubility in an aqueous, acidic milieu; YES/NO
Procedure: Methods The assay employed is a competitive MHC class II binding assay, wherein each peptide is analysed for its ability to displace a known control binder from each of the human MHC class II allotypes investigated.
Also shown is the solubility status of the peptide at the highest concentrations in the aqueous solution of the binding assay. The value illustrates the lowest concentration at which an insoluble white precipitate is seen.

[2] = Precipitation in aqueous solution of the binding assay; assay type: physicochemical
Excerpt: This is a characteristic of promiscuous HLA-DRB1* binders.

[3] = system: PBMC's; experiment: Cytokine release assay (IL-13, IFN-gamma); assay type: cell-based, human; conditions: IL-13 or IFN-gamma response greater than 100 pg/ml
Procedure: Cytokine secretion profiles from PBMC's are analysed in response to the peptide stimulation using the peptides from Example 3.
Thus, an individual was considered to have responded to a peptide if cells from that individual yielded a response greater than 100 pg/ml for either […] or IFN-gamma.

[4] = lowest concentration at which an insoluble white precipitate is seen in the aqueous solution of the binding assay
[5] = lowest concentration at which an insoluble white precipitate is seen, value in brackets

| Compound | Solubility test [1] | also measured |
| --- | --- | --- |
| CC[C@H](C)[C@H](NC(=O)[C@H](C)NC(=O)[C@H](C)NC(=O)[C@@H](NC(=O)[C@H](C)NC(=O)[C@H](CCC(=O)O)NC(=O)[C@H](CC(=O)O)NC(=O)[C@@H](NC(=O)[C@H](C)NC(=O)[C@@H](N)CCCCN)C(C)C)C(C)C)C(=O)N[C@@H](CCC(=O)O)C(=O)N[C@@H](CCCCN)C(=O)N[C@@H](CO)C(=O)O [HDM28] (H-KAVDEAVAAIEKS-OH; N-terminus and C-terminus assumed) | YES |  |
| CSCC[C@H](NC(=O)[C@@H]1CCCN1C(=O)[C@H](CC(=O)O)NC(=O)[C@H](Cc1ccccc1)NC(=O)[C@@H](NC(=O)[C@@H](N)CCC(=O)O)[C@@H](C)O)C(=O)N[C@@H](CCCCN)C(=O)N[C@H](C(=O)N1CCC[C@H]1C(=O)N[C@@H](CC(=O)O)C(=O)N[C@@H](Cc1c[nH]cn1)C(=O)N[C@@H](CO)C(=O)N[C@@H](CC(=O)O)C(=O)N[C@@H](CCCCN)C(=O)O)C(C)C [HDM29A] (H-ETFDPMKVPDHSDK-OH; N-terminus and C-terminus assumed) | YES |  |
| CSCC[C@H](NC(=O)[C@@H]1CCCN1C(=O)[C@H](CC(=O)O)NC(=O)[C@H](Cc1ccccc1)NC(=O)[C@@H](NC(=O)[C@H](CCC(=O)O)NC(=O)[C@H](CO)NC(=O)[C@@H](N)CCCCN)[C@@H](C)O)C(=O)N[C@@H](CCCCN)C(=O)N[C@H](C(=O)N1CCC[C@H]1C(=O)N[C@@H](CC(=O)O)C(=O)N[C@@H](Cc1c[nH]cn1)C(=O)N[C@@H](CO)C(=O)N[C@@H](CC(=O)O)C(=O)O)C(C)C [HDM29B] (H-KSETFDPMKVPDHSD-OH; N-terminus and C-terminus assumed) | YES |  |
| CSCC[C@H](NC(=O)[C@@H]1CCCN1C(=O)[C@H](CC(=O)O)NC(=O)[C@H](Cc1ccccc1)NC(=O)[C@@H](NC(=O)[C@@H](N)CCC(=O)O)[C@@H](C)O)C(=O)N[C@@H](CCCCN)C(=O)N[C@H](C(=O)N1CCC[C@H]1C(=O)N[C@@H](CC(=O)O)C(=O)N[C@@H](Cc1c[nH]cn1)C(=O)N[C@@H](CO)C(=O)N[C@@H](CC(=O)O)C(=O)O)C(C)C [HDM29] (H-ETFDPMKVPDHSD-OH; N-terminus and C-terminus assumed) | YES |  |
| CC[C@H](C)[C@H](NC(=O)CNC(=O)[C@@H](NC(=O)[C@H](Cc1c[nH]cn1)NC(=O)[C@H](CCCNC(=N)N)NC(=O)[C@H](CCC(=O)O)NC(=O)[C@H](Cc1ccccc1)NC(=O)[C@H](CCCCN)NC(=O)[C@@H](N)CC(=O)O)[C@@H](C)CC)C(=O)N[C@H](C(=O)N[C@@H](CC(=O)O)C(=O)N[C@@H](CC(C)C)C(=O)N[C@@H](CCCCN)C(=O)O)[C@@H](C)CC [HDM30] (H-DKFERHIGIIDLK-OH; N-terminus and C-terminus assumed) | YES |  |
| CC[C@H](C)[C@H](NC(=O)CNC(=O)[C@@H](NC(=O)[C@@H](N)Cc1c[nH]cn1)[C@@H](C)CC)C(=O)N[C@H](C(=O)N[C@@H](CC(=O)O)C(=O)N[C@@H](CC(C)C)C(=O)N[C@@H](CCCCN)C(=O)NCC(=O)N[C@@H](CCC(=O)O)C(=O)N[C@@H](CC(C)C)C(=O)N[C@@H](CC(=O)O)C(=O)N[C@@H](CCSC)C(=O)N[C@@H](CCCNC(=N)N)C(=O)N[C@@H](CC(N)=O)C(=O)O)[C@@H](C)CC [HDM31A] (H-HIGIIDLKGELDMRN-OH; N-terminus and C-terminus assumed) | YES |  |
| CC[C@H](C)[C@H](N)C(=O)N[C@@H](CC(=O)O)C(=O)N[C@@H](CC(C)C)C(=O)N[C@@H](CCCCN)C(=O)NCC(=O)N[C@@H](CCC(=O)O)C(=O)N[C@@H](CC(C)C)C(=O)N[C@@H](CC(=O)O)C(=O)N[C@@H](CCSC)C(=O)N[C@@H](CCCNC(=N)N)C(=O)N[C@@H](CC(N)=O)C(=O)N[C@H](C(=O)N[C@@H](CCC(N)=O)C(=O)N[C@H](C(=O)N[C@@H](CCCNC(=N)N)C(=O)O)C(C)C)[C@@H](C)CC [HDM32A] (H-IDLKGELDMRNIQVR-OH; N-terminus and C-terminus assumed) | YES |  |
| CC[C@H](C)[C@H](N)C(=O)N[C@@H](CC(=O)O)C(=O)N[C@@H](CC(C)C)C(=O)N[C@@H](CCCCN)C(=O)NCC(=O)N[C@@H](CCC(=O)O)C(=O)N[C@@H](CC(C)C)C(=O)N[C@@H](CC(=O)O)C(=O)N[C@@H](CCSC)C(=O)N[C@@H](CCCNC(=N)N)C(=O)N[C@@H](CC(N)=O)C(=O)N[C@H](C(=O)N[C@@H](CCC(N)=O)C(=O)O)[C@@H](C)CC [HDM32] (H-IDLKGELDMRNIQ-OH; N-terminus and C-terminus assumed) | YES |  |
| CC[C@H](C)[C@H](NC(=O)[C@H](CC(N)=O)NC(=O)[C@H](CCCNC(=N)N)NC(=O)[C@H](CCSC)NC(=O)[C@H](CC(=O)O)NC(=O)[C@@H](N)CC(C)C)C(=O)N[C@@H](CCC(N)=O)C(=O)N[C@H](C(=O)N[C@@H](CCCNC(=N)N)C(=O)NCC(=O)N[C@@H](CC(C)C)C(=O)N[C@@H](CCCCN)C(=O)N[C@@H](CCC(N)=O)C(=O)O)C(C)C [HDM33] (H-LDMRNIQVRGLKQ-OH; N-terminus and C-terminus assumed) | YES |  |
| CC[C@H](C)[C@H](NC(=O)[C@H](CC(N)=O)NC(=O)[C@@H](N)CCCNC(=N)N)C(=O)N[C@@H](CCC(N)=O)C(=O)N[C@H](C(=O)N[C@@H](CCCNC(=N)N)C(=O)NCC(=O)N[C@@H](CC(C)C)C(=O)N[C@@H](CCCCN)C(=O)N[C@@H](CCC(N)=O)C(=O)N[C@@H](CCSC)C(=O)N[C@@H](CCCCN)C(=O)N[C@@H](CCCNC(=N)N)C(=O)N[C@H](C(=O)NCC(=O)O)C(C)C)C(C)C [HDM34] (H-RNIQVRGLKQMKRVG-OH; N-terminus and C-terminus assumed) | YES |  |
| CSCC[C@H](NC(=O)[C@H](CCC(N)=O)NC(=O)[C@H](CCCCN)NC(=O)[C@H](CC(C)C)NC(=O)CNC(=O)[C@@H](N)CCCNC(=N)N)C(=O)N[C@@H](CCCCN)C(=O)N[C@@H](CCCNC(=N)N)C(=O)N[C@H](C(=O)NCC(=O)N[C@@H](CC(=O)O)C(=O)N[C@@H](C)C(=O)N[C@@H](CC(N)=O)C(=O)O)C(C)C [HDM35] (H-RGLKQMKRVGDAN-OH; N-terminus and C-terminus assumed) | YES |  |
| CC(C)[C@H](NC(=O)[C@H](CCCNC(=N)N)NC(=O)[C@@H](N)CCCCN)C(=O)NCC(=O)N[C@@H](CC(=O)O)C(=O)N[C@@H](C)C(=O)N[C@@H](CC(N)=O)C(=O)N[C@H](C(=O)N[C@@H](CCCCN)C(=O)N[C@@H](CO)C(=O)N[C@@H](CCC(=O)O)C(=O)N[C@@H](CC(=O)O)C(=O)NCC(=O)O)C(C)C [HDM36] (H-KRVGDANVKSEDG-OH; N-terminus and C-terminus assumed) | YES |  |
| CC(C)[C@H](NC(=O)CNC(=O)[C@H](CC(=O)O)NC(=O)[C@H](CCC(=O)O)NC(=O)[C@H](CO)NC(=O)[C@H](CCCCN)NC(=O)[C@@H](NC(=O)[C@H](CC(N)=O)NC(=O)[C@H](C)N)C(C)C)C(=O)N[C@H](C(=O)N[C@@H](CCCCN)C(=O)N[C@@H](C)C(=O)N[C@@H](Cc1c[nH]cn1)C(=O)O)C(C)C [HDM37] (H-ANVKSEDGVVKAH-OH; N-terminus and C-terminus assumed) | YES |  |
| CC[C@H](C)[C@H](NC(=O)[C@H](C)NC(=O)[C@@H](N)[C@@H](C)O)C(=O)N[C@@H](Cc1ccccc1)C(=O)N[C@@H](CCC(N)=O)C(=O)N[C@@H](CC(=O)O)C(=O)N[C@H](C(=O)N[C@H](C(=O)N[C@@H](CCCNC(=N)N)C(=O)N[C@@H](C)C(=O)N[C@@H](CCC(=O)O)C(=O)N[C@@H](CCSC)C(=O)N[C@H](C(=O)N[C@@H](CCCCN)C(=O)O)[C@@H](C)O)C(C)C)[C@@H](C)O [HDM48] (H-TAIFQDTVRAEMTK-OH; N-terminus and C-terminus assumed) | YES |  |
| CSCC[C@H](NC(=O)[C@H](CCC(=O)O)NC(=O)[C@H](C)NC(=O)[C@H](CCCNC(=N)N)NC(=O)[C@@H](NC(=O)[C@@H](NC(=O)[C@@H](N)CC(=O)O)[C@@H](C)O)C(C)C)C(=O)N[C@H](C(=O)N[C@@H](CCCCN)C(=O)N[C@H](C(=O)N[C@@H](CC(C)C)C(=O)N[C@@H](C)C(=O)N1CCC[C@H]1C(=O)O)C(C)C)[C@@H](C)O [HDM49] (H-DTVRAEMTKVLAP-OH; N-terminus and C-terminus assumed) | YES |  |
| CC(C)C[C@H](NC(=O)[C@H](CCC(=O)O)NC(=O)[C@H](CCCCN)NC(=O)[C@H](CCCCN)NC(=O)[C@H](Cc1ccccc1)NC(=O)[C@H](C)NC(=O)[C@@H]1CCCN1C(=O)[C@H](C)NC(=O)[C@H](CC(C)C)NC(=O)[C@@H](NC(=O)[C@@H](N)CCCCN)C(C)C)C(=O)N[C@@H](CCC(=O)O)C(=O)N[C@@H](CCCNC(=N)N)C(=O)O [HDM50] (H-KVLAPAFKKELER-OH; N-terminus and C-terminus assumed) | YES |  |
| HDDVVSMEYDLAYKL [HDM39A] |  | Precipitation in assay [2, 4]: 10000 µM; Precipitation in assay [2, 5]: (1.8 mg/ml) |
| SYYRYVAREQS [HDM205] |  | Ranking of peptides by percentage of responders (in words) [3]: top five peptides |
| VSMEYDLAYKLGDLH [HDM40A] |  | Precipitation in assay [2, 4]: 10000 µM; Precipitation in assay [2, 5]: (1.8 mg/ml) |
